{
  "source": "patent US20180135134A1",
  "about": "“TARGETED SELECTION OF PATIENTS FOR TREATMENT WITH CORTISTATIN DERIVATIVES” (President and Fellows of Harvard College, priority 2015, published 2018)",
  "key": {"MV4;11": {"test_system": "MV4;11", "assay": "Cellular proliferation assay (CellTiter-Glo)", "conditions": "Homo sapiens", "description": "(§1) All suspension cells were plated (96-well) in triplicate at 5,000-30,000 cells per well for testing (n=3). Viable cell number was estimated after 3, 7 and 10 days by counting viable cells from one vehicle well, generating a cell dilution series, transferring 20 ml per well in duplicate to a 384-well plate, and performing a linear regression to CellTiter-Glo (Promega) response (SPECTRAmax M3, Molecular Devices). Cells from all wells were also fourfold diluted in media and transferred in duplicate for CellTiter-Glo measurement. On days 3 and 7, an equal volume for all wells was split-back with fresh media and compound, such that the resulting cell density for the vehicle well matched the initial seeding density. For days 7 and 10, estimated cell number represents the split-adjusted theoretical cell number. […] For growth assays with inhibitors, n=3 for each concentration with two independent experiments."}, "RS4;11": {"test_system": "RS4;11", "assay": "Cellular proliferation assay (CellTiter-Glo)", "conditions": "Homo sapiens", "description": "All suspension cells were plated (96-well) in triplicate at 5,000-30,000 cells per well for testing (n=3). Viable cell number was estimated after 3, 7 and 10 days by counting viable cells from one vehicle well, generating a cell dilution series, transferring 20 ml per well in duplicate to a 384-well plate, and performing a linear regression to CellTiter-Glo (Promega) response (SPECTRAmax M3, Molecular Devices). Cells from all wells were also fourfold diluted in media and transferred in duplicate for CellTiter-Glo measurement. On days 3 and 7, an equal volume for all wells was split-back with fresh media and compound, such that the resulting cell density for the vehicle well matched the initial seeding density. For days 7 and 10, estimated cell number represents the split-adjusted theoretical cell number. HCT116 were plated (96-well) in triplicate at 250 cells per well. Cells were incubated in the presence of vehicle, 1 μM paclitaxel, or compound. On day 7, CellTiter-Blue (Promega) response was measured and values were normalized to vehicle (100% growth) and paclitaxel (0% growth). For growth assays with inhibitors, n=3 for each concentration with two independent experiments."}, "REH": {"test_system": "REH", "assay": "Cellular proliferation assay (CellTiter-Glo)", "conditions": "Homo sapiens", "description": "as §1"}, "NCI-N87": {"test_system": "NCI-N87", "assay": "Soft agar growth assay (Alamar Blue)", "conditions": "Gastric cancer, HER2 overexpression, 100 nM cortistatin A", "description": "For the 62 cell lines 96 well suspension cell culture plates were prepared. 100 μL of the soft agar bottom layer (0.6% final concentration in complete medium) was poured and left to solidify. 50 μL of the soft agar top layer (0.4% final concentration) containing the corresponding cells and cell number were then added on top, solidified and incubated at 37° C., 10% CO2. After the soft agar had solidified, the test items were added at indicated final concentrations into the inner wells of the plate. Subsequently, the assay was incubated in cell culture incubators for 8 to 14 days. Finally, the assay was developed using Alamar Blue and upon 1-5 h of incubation at 37° C. fluorescence intensity was determined (excitation: 560 nm; emission: 590 nm). As low control, cells were treated with 1E-05M Staurosporine (6fold values). As high control, cells were treated with 0.1% DMSO (solvent control, 6 fold values).\nRaw data were converted into percent soft agar growth relative to high controls (solvent 0.1% DMSO) and low controls (1E-05M Staurosporine), which were set to 100% and 0%, respectively."}},
  "data": [
    {"smiles": "CN(C)[C@H]1C[C@@]23CC[C@@]4(O2)C(=CC[C@]2(C)[C@@H](c5ccc6ccncc6c5)CC[C@H]24)C=C3[C@@H](O)[C@@H]1O", "note": "[Cortistatin A, cortistatin A]", "values": [
      {"measurement": "GI50", "setting": "MV4;11; MV4-11", "value": 6, "unit": "nM"},
      {"measurement": "GI50", "setting": "MV4;11; MV4-11, 240 h", "value": 6, "unit": "nM"},
      {"measurement": "GI50", "setting": "RS4;11", "value": 3, "unit": "nM"},
      {"measurement": "GI50", "setting": "REH", "value": 1, "unit": "nM"},
      {"measurement": "% growth rel. to vehicle", "setting": "NCI-N87", "value": 26, "unit": "%"}
    ]}
  ]
}
